Earlier results, collected in patent US9637731B2, “Heavy metal stabilization and methane inhibition during induced or naturally occurring reducing conditions in contaminated media” (Innovative Environmental Technologies, Inc., priority 2013, dated 2017).

Columns and labels:
[1] = system: F420-dependent NADP oxidoreductase enzyme; conditions: 3D protein model
[2] = system: non-methanogens
[3] = system: cellulolytic bacteria
[4] = system: pure methanogenic bacteria
[5] = system: Methanobrevibacter

| SMILES | affinity for the model protein compared to the natural ligand F420 [1] | populations of the non-methanogens [2] | effect on cellulolytic bacteria [3] | growth and activity of pure methanogenic bacteria [4] | methane formation [5] | concentration that completely inhibited growth ([5]; per ml of culture medium) | IC50 ([5]; per ml of culture medium, read-out: concentration resulting in 50% inhibition of growth) |
| --- | --- | --- | --- | --- | --- | --- | --- |
| CC[C@H](C)C(=O)O[C@H]1CCC=C2C=C[C@H](C)[C@H](CC[C@@H]3C[C@@H](O)CC(=O)O3)[C@H]21 [compactin] | more affinity | – | – | – | – | – | – |
| CC[C@H](C)C(=O)O[C@H]1C[C@@H](C)C=C2C=C[C@H](C)[C@H](CC[C@@H]3C[C@@H](O)CC(=O)O3)[C@H]21 [lovastatin, Lovastatin] | more affinity | not affected | without any negative effect | significantly reduced | significantly inhibited | 10 nmol/mL | 4 µM |
